Data on two molecules can be found in patent publication US10772887B2, “Anti-HTLV-1 drug and therapeutic agent for HTLV-1-associated myelopathy/tropical spastic paraparesis (HAM/TSP)” (Kagoshima University, priority 2016, dated 2020).

Structures are written as SMILES. Several values for one entry are separate records, joined by “and”; a condition that tells them apart may be missing. Equal values may be shown once.

In series [1] the test system is HTLV-1 pX (proviral load) in live cells of PBMCs from HAM cases. The experiment in a line: PMA-HTLV-1 viability PCR, PBMCs from HAM cases. The format is cell-based. Also noted: key to ΔCτ Drug Mean: ΔCτ = CτD−P+ − CτD+P+ (Cτ shift by drug, PMA-treated). The note with it: N=16. As for the experimental part:
PBMCs from 16 HAM cases frozen and preserved in liquid nitrogen were used.
A PMA stock solution (20 mM, frozen and preserved at −20° C. under light protection) was added to cell samples to yield a final concentration of 50 μM, and the tubes were incubated in a dark place (wrapped in aluminum foil) at room temperature for 5 minutes (each tube was sometimes flicked by fingers for mixing).
A photo-crosslinker and a halogen lamp were always used to perform photo-crosslinking using a household 100-V AC power source. The cell specimen volume was adjusted by appropriately adding PBS to 200 μL and irradiation was carried out for 5 minutes at a position 20 cm away from the halogen lamp in the dark. […] Each sample tube was sometimes flicked by fingers for mixing
Frozen PBMC specimens were thawed in a water bath at 37° C. and washed twice with PBS at 300×g, and then, the pellet was suspended in 1 mL of PBS and placed on ice. The cell concentration was counted by the trypan blue exclusion method using a hemocytometer.
Approximately 5×10^5 to 1×10^6 cells were collected in two Eppendorf tubes and the solution volume was adjusted to 200 μL by adding PBS if appropriate. One of the tubes was subjected to PMA treatment and photo-crosslinking, and the other tube was not treated in the same manner. DNA was extracted from both tubes using DNeasy Blood & Tissue Kits (QIAGEN).
To the remaining liquid of the cell suspension of each cell specimen, approximately 7.5 mL of cell medium RPMI1640 (supplemented with 10% of fetal calf serum and 1% of penicillin-streptomycn) was added to adjust the total volume to 8.0 mL+α. Each mixture was plated in a volume of approximately 2000 μL on a 6-well polystyrene plate such that 4 wells were used per cell specimen.
After adding the drug, each mixture was gently shaken on a shaker and incubation was started at 37° C. in a 5% CO2 incubator.
At T=6 h, about a half volume of the cell suspension of each well was harvested, collected in an Eppendorf tube, and centrifuged at 3,500 rpm×10 min. The supernatant was discarded, and the pellet was resuspended with 1 mL of PBS. Centrifugation was performed again at 3,500 rpm×10 min, and the supernatant was discarded, followed by washing. PBS was added to yield a volume of 200 μL, and all specimens were subjected to PMA treatment and photo-crosslinking. Subsequently, the specimens were washed with PBS again, and DNA was extracted with DNeasy Blood & Tissue Kits (QIAGEN).
The procedures were performed as in the case of T=6 h described in (1-2-5) above. DNA samples were named, for example, “Sample No-Imatinib600 nM-12 h.”
The DNA concentration was measured by ND-1000 (Thermo Fisher Scientific), and DNA was prepared in an amount (10 ng/μL×triplicate or more) sufficient for real-time PCR to be performed in triplicate. DNA was frozen and preserved at −20° C. until use.
According to the protocol (for the PCR system of 25 μL in total) of TaqMan Universal Master Mix II (#4440044, Thermo Fisher Scientific), 20 μM forward and reverse primers, 8 μM TaqMan probes, 2× Universal Master Mix II, and D2 W were mixed. The mixture was pipetted in a volume of 25 μL into each of triplicate wells of a MicroAmp Fast 96-well Reaction Plate (0.1 mL) (REF 4346907, Applied Biosystems) provided with MicroAmp Optical Adhesive Film (P/N 4311971, Applied Biosystems).
A standard dilution series for standard curve creation was prepared from the following five points for pX: NTC (No Template Control); 2 copies/μL (10 copies at 5 μL); 20 copies/μL (100 copies at 5 μL); 200 copies/μL (1000 copies at 5 μL); and […] (10000 copies at 5 μL).
The thermal cycle program was carried out using the StepOne Plus real-time PCR system (Applied Biosystems) and StepOne software ver. 2.3 with 1 cycle in a holding stage at 50° C.×2 minutes and 95° C.×10 minutes and 45 cycles of amplification at 95° C.×15 seconds and 60° C.×1 minute.
Index of the Cτ extension effect by ABL1 inhibitor treatment: ΔCτDrug=CτD−P+−CτD+P+ [Formula 3]

For series [2], the system named is HTLV-1 pX (proviral load) in live cells of PBMCs from AC-derived cases. The experiment in a line: PMA-HTLV-1 viability PCR, PBMCs from AC-derived cases. It is filed as cell-based. On the procedure:
PBMCs (1×10^7 cells) from 14 AC-derived cases frozen and preserved in liquid nitrogen were used.
Specimens frozen and preserved in liquid nitrogen were thawed in a water bath at 37° C. and washed twice with approximately 10 mL of PBS at 300×g during centrifugation for 10 minutes, and resuspended in 1 mL of PBS. The cell concentration was counted by the trypan blue exclusion method. Thereafter, each specimen was divided into two groups such that each group includes approximately 100,000 PBMCs. One of the groups was not subjected to PMA treatment, and the other group was subjected to PMA treatment. The sample groups were named “Sample No-Drug-P−” and “Sample No-Drug-P+,” respectively.
A PMA stock solution was added to the sample named “Sample No-Drug-P+” to yield a final concentration of 50 μM in the manner described in Example 2, occasionally shaken under light protection at room temperature for 5 minutes for PMA treatment, and treated with a photo-crosslinker under a halogen lamp for crosslinking during air-cooling for 5 minutes. Genomic DNA was extracted from both samples including the former sample which was not subjected to PMA treatment using DNeazy Blood & Tissue Kits (Cat No 69504, QIAGEN).
RPMI1640 (supplemented with 10% fetal bovine serum, 1% penicillin, and streptomycin) in a volume of 7 mL+α was added to the cell suspension remaining after preparing the two samples in (4-1-2), followed by vortexing. […] After mixing with a shaker for a short period of time, the cells were cultured in a 5% CO2 incubator.
After T=6 h, each specimen was subjected to PMA treatment and crosslinking, and then, genomic DNA was extracted therefrom according to the method described in Example 2.
PMA treatment and DNA extraction were carried out according to the method described in Example 2. Accordingly, 10 samples of genomic DNA from each AC sample to be tested, that is to say, 140 samples from 14 specimens, were prepared.
In this Example, the methods described in Example 2 were used for DNA concentration measurement, working solution preparation, real-time PCR, and the method for calculating PMA-HTLV-1 viability PCR indexes.
All samples were examined at N=14.

Series [3] has as its system HTLV-1 proviral load (PVL). The experiment in a line: Peripheral blood PVL before and after oral imatinib in an anti-HTLV-1 antibody-positive CML patient with HAM. The format is in vivo, human. The note with it: 2844 copies before drug administration, one patient.
For another series, the system named is NC-derived CD4+ T cells. The note with it: 5 μM, 24-hour treatment, FIG. 2 A/B.
The test system of series [4] is HAM-derived non-CD4-PBMCs. The note with it: 5 μM, 24-hour treatment, FIG. 2 C/D.
In another series the test system is NC-derived non-CD4-PBMCs. Particulars: 5 μM, 24-hour treatment, FIG. 2 C/D.
For series [5] the following is noted: read-out: Cmax concentration; based on package inserts / in vivo dynamics data; concentration examined in terms of Cmax; cited from earlier work.

On to `Cc1ccc(NC(=O)c2ccc(CN3CCN(C)CC3)cc2)cc1Nc1nccc(-c2cccnc2)n1` [imatinib], for which the “pX decrease rate in live cells (%) Mean” value is 50.35% in series [1] (Imatinib 600 nM, 6 h); 66.37% in series [1] (Imatinib 600 nM, 12 h); 43.37% in series [1] (Imatinib 5 μM, 6 h); 44.99% in series [1] (Imatinib 5 μM, 12 h); 23.83% in series [2] (Imatinib 600 nM, 6 h, N=14); “approximately 45%” in series [2] (Imatinib 600 nM, 12 h, N=14). The “pX decrease rate in live cells (%) Mean” value came to 45.46% in series [2] (Imatinib 600 nM, 12 h, N=14, listed as Imatinib); 51.65% in series [2] (Imatinib 5 μM, 6 h, N=14); 58.25% in series [2] (Imatinib 5 μM, 12 h, N=14). In addition, the “ΔCτ Drug Mean” value in series [1] (Imatinib 600 nM, 6 h) is reported as −1.30; in series [1] (Imatinib 600 nM, 12 h) it was −1.96; in series [1] (Imatinib 5 μM, 6 h), −0.99; in series [1] (Imatinib 5 μM, 12 h), −1.49; in series [2] (Imatinib 600 nM, 6 h, N=14), −0.28; in series [2] (Imatinib 600 nM, 12 h, N=14), −0.98. Moreover, the “ΔCτ Drug Mean” value in series [2] (Imatinib 5 μM, 6 h, N=14) was −1.45. Moreover, the “peripheral blood PVL” value is 448 copies/10^4 PBMCs in series [3] (1 year and 5 months after drug administration); 1138 copies in series [3] (after 5 months of drug administration, oral 400 then 300 mg/day).

On to `Cc1cn(-c2cc(NC(=O)c3ccc(C)c(Nc4nccc(-c5cccnc5)n4)c3)cc(C(F)(F)F)c2)cn1` [nilotinib], for which the “pX decrease rate in live cells (%) Mean” value in series [1] (Nilotinib 30 nM, 6 h) was 69.51%; in series [1] (Nilotinib 30 nM, 12 h), 78.00%; in series [1] (Nilotinib 3 μM, 6 h), 53.82%; in series [1] (Nilotinib 3 μM, 12 h), 36.19%; in series [2] (Nilotinib 30 nM, 6 h, N=14), 53.23%; in series [2] (Nilotinib 30 nM, 12 h, N=14), ~71% and 71.38%. Further, the “pX decrease rate in live cells (%) Mean” value is 71.38% in series [2] (Nilotinib 30 nM, 12 h, N=14, listed as Nilotinib); 50.50% in series [2] (Nilotinib 3 μM, 6 h, N=14); 58.56% in series [2] (Nilotinib 3 μM, 12 h, N=14). In addition, the “ΔCτ Drug Mean” value in series [1] (Nilotinib 30 nM, 6 h) is reported as −2.03; in series [1] (Nilotinib 30 nM, 12 h), −2.63; in series [1] (Nilotinib 3 μM, 6 h), −0.86; in series [1] (Nilotinib 3 μM, 12 h), −1.46; in series [2] (Nilotinib 30 nM, 6 h, N=14), −1.26; in series [2] (Nilotinib 30 nM, 12 h, N=14) it was −1.56. Also, the “ΔCτ Drug Mean” value in series [2] (Nilotinib 3 μM, 6 h, N=14) is −1.05; in series [2] (Nilotinib 3 μM, 12 h, N=14) it was −1.36. Moreover, the “cell death of HAM-derived CD4+ T cells” value in the series with HAM-derived CD4+ T cells is listed as “cause cell death to occur”. The “cell death of NC-derived CD4+ T cells” value with NC-derived CD4+ T cells is recorded as “cell death does not occur”. Besides, the “cell death of non-CD4-PBMCs, HAM” value in series [4] was “significantly observed”. Moreover, the “cell death of non-CD4-PBMCs, NC” value with NC-derived non-CD4-PBMCs is “significantly observed”. Besides, the Cmax in series [5] is 3000 nM.
